Series [1] relates to mice. As to the kind of experiment: motility reduced by habituation to the enclosure. The series is classed as in vivo, mouse. The conditions noted are these: i.p., dose not stated. The method, then: After they have stayed in the actimeters for 18 hours, the mice (6 per dose, 12 control animals) receive CRL 41 224. They are immediately returned to their respective enclosures and, half an hour later, their motility is recorded for 30 minutes.

The test system of series [2] is mice. As to the kind of experiment: interaction with reserpine. Format: in vivo, mouse. The conditions noted are these: i.p.; dose not stated. How it is done:
Four hours after the intraperitoneal injection of 2.5 mg/kg of reserpine, groups of 6 mice receive CRL 41 224.

The subject of series [3] is mice. As to the kind of experiment: interaction with oxotremorine. The series is classed as in vivo, mouse. The conditions noted are these: i.p. The method, then: CRL 41 224 is administered to groups of 6 mice 0.5 hour before the intraperitoneal injection of 0.5 mg/kg of oxotremorine.
The test system of series [4] is mice. As to the kind of experiment: toxicity to grouped mice compared with isolated mice. Format: in vivo, mouse.
Series [5] has as its system mice. As to the kind of experiment: four plate test, traction and electric shock. The conditions noted are these: i.p. Format: in vivo, mouse. The method, then: The test is performed on groups of 10 mice 30 minutes after the administration of CRL 41 224.
The subject of series [6] is mice. As to the kind of experiment: action on the spontaneous motility (actimeter). The series is classed as in vivo, mouse. The conditions noted are these: mice, i.p.; dose not stated. How it is done:
0.5 hour after they have received CRL 41 224, the mice (6 per dose, 12 control animals) are placed in an actimeter, where their motility is recorded for 30 minutes.

The subject of series [7] is mice. As to the kind of experiment: action on the behavioral despair. Format: in vivo, mouse. The conditions noted are these: i.p., dose not stated. From the text:
Half an hour after they have received CRL 41 224, groups of 6 mice are placed in a beaker filled with water to a height of 6 cm. The total period of immobility between the 2nd and 6th minutes following immersion is noted.

Series [8] concerns rats. As to the kind of experiment: interaction with amphetamine. Format: in vivo, rat. The conditions noted are these: rats, i.p.; dose not stated. How it is done:
Amphetamine (2 mg/kg) is injected intraperitoneally into groups of 6 rats 30 minutes after the administration of CRL 41 224.

Series [9] has as its system rats. As to the kind of experiment: action on stereotypies in rats (α-methyltyrosine, haloperidol, reserpine).
The test system of series [10] is mice. As to the kind of experiment: motility reduced by hypoxic aggression. Format: in vivo, mouse. The conditions noted are these: i.p., dose not stated. The method, then:
Half an hour after they have received CRL 41 224, the mice (10 per dose, 20 control animals) are subjected to acute hypobaric anoxia [pressure reduction of 600 mm Hg (i.e. about 8×10^4 Pa) in 90 seconds; release of vacuum in 45 seconds] and are then placed in an actimeter, where their motility is recorded for 10 minutes.

The subject of series [11] is mice. As to the kind of experiment: interaction with barbital. Format: in vivo, mouse. The conditions noted are these: i.p.; dose not stated. How it is done: Half an hour after the administration of CRL 41 224, groups of 10 mice receive an intraperitoneal injection of barbital (220 mg/kg).
In series [12] the test system is peripheral α-adrenergic stimulation. As to the kind of experiment: signs of peripheral adrenergic stimulation. The series is classed as in vivo, mouse; rat. The conditions noted are these: i.p., dose not stated. The method, then:
(§1) Groups of three animals are observed before and then 0.25 hour, 0.50 hour, 1 hour, 2 hours, 3 hours and 24 hours after the administration of CRL 41 224.

Series [13] has as its system rats. As to the kind of experiment: interaction with apomorphine in rats. The conditions noted are these: i.p., dose not stated. Format: in vivo, rat. The method, then:
CRL 41 224 is administered to groups of 6 rats 0.5 hour before the subcutaneous injection of 0.5 mg/kg of apomorphine.

For series [14], the system named is mice. As to the kind of experiment: interaction with apomorphine in mice. Format: in vivo, mouse. The conditions noted are these: i.p.; dose not stated. How it is done: Groups of 6 mice receive CRL 41 224 0.5 hour before the subcutaneous injection of 1 or 16 mg/kg of apomorphine.
A further series relates to CNS. As to the kind of experiment: overall neuropsychopharmacological (CNS) profile. The series is classed as in vivo, mouse; rat. The conditions noted are these: i.p., mice and rats; dose not stated. How it is done:
The neuropsychopharmacological study of CRL 41 219 was carried out as indicated above for CRL 41 224.
The neuropsychopharmacological study of CRL 41 220 was carried out in accordance with the procedures given above for CRL 41 224.

The subject of series [15] is mice. As to the kind of experiment: overall behavior and reactivities in mice. The conditions noted are these: mice, i.p.; dose not stated. The series is classed as in vivo, mouse. How it is done:
as §1

Series [16] concerns rats. As to the kind of experiment: overall behavior and reactivities in rats. Format: in vivo, rat. The conditions noted are these: i.p., dose not stated. The method, then: as §1
Series [17] concerns male mice. As to the kind of experiment: acute toxicity, intraperitoneal (lethal doses). Format: in vivo, mouse. The conditions noted are these: i.p. How it is done: By intraperitoneal administration to male mice, the LD-30 (lethal dose for 30% of the animals tested) is of the order of 128 mg/kg and the LD-50 is of the order of about 200 mg/kg.
Series [18] has as its system mice. As to the kind of experiment: action on the intergroup aggression. Format: in vivo, mouse. The conditions noted are these: i.p., dose not stated. How it is done:
After they have stayed for 3 weeks in the 2 halves of a cage divided by an opaque partition, groups of 3 mice receive CRL 41 224. Half an hour later, the two groups from the same cage are brought together by removal of the partition, and the number of fights which occur in 10 minutes is noted. Half the test is performed on ordinary mice (NMRI, C.E.R. January) and half on NMRI (Iffa Credo) mice.

For series [19], the system named is male mice. The conditions noted are these: reference stimulant agents; cited from earlier work.

The values that follow come from US4963570A, “1-(acetylaminophenyl)-2-aminopropanone derivatives and pharmaceutical compositions thereof” (Laboratoire L. Lafon, priority 1983, dated 1990).

“Also recorded” adds a separate entry of the source.

On to `CNC(C)C(=O)c1ccc(NC(C)=O)cc1` (stereo not drawn) [CRL 41 217], for which, in the series with mice [1], the “motor activity after habituation to the enclosure” value is reported as “a resumption in the motor activity of mice accustomed to their enclosure”. Also, in the series on mice [2], the “hypothermia induced by reserpine” value is on record as “antagonism of the hypothermia induced by apomorphine, oxotremorine or reserpine” and the “ptosis induced by reserpine” value is given as “antagonism of the ptosis induced by reserpine”. In addition, in the series with mice [3] (dose not stated), the “hypothermia induced by oxotremorine” value is reported as “antagonism of the hypothermia induced by apomorphine, oxotremorine” and the “trembling caused by oxotremorine” value is reported as “antagonism of the trembling caused by oxotremorine”. Also, in the series with mice [4], the “toxicity to grouped mice compared with isolated mice” value is “do not increase the toxicity to grouped mice”. For the same compound, the “convulsant effects of electric shock” value in the series with mice [5] (dose not stated) was “potentiate the convulsant effects of electric shock”. For the same compound, in the series on mice [6], the “spontaneous motility / motor activity” value is recorded as “an increase in the spontaneous motility in mice”. Further, the “period of immobility or "despair"” value in the series on mice [7] is given as “a reduction in the immobility”. The “stereotypies induced by amphetamine” value with rats [8] was “potentiation of the stereotypies induced by apomorphine or amphetamine”. Besides, the “suppression of induced stereotype movements by prior injection of alpha-methyltyrosine” value in the series with rats [9] (i.p.) is given as “not suppressed”. Moreover, the “motor recovery after hypoxic aggression” value in the series with mice [10] was “an improvement in the motor recovery in mice after acute hypoxia”. Also, the “sleep induced by barbital” value in the series on mice [11] is reported as “antagonism of the sleep induced by barbital”. For the same compound, in series [12], the exophthalmos entry is “absent”; the mydriasis entry is on record as “mydriasis”; the “peripheral adrenergic stimulation, overall” value is reported as “effects which may reflect peripheral adrenergic stimulation”; the salivation entry is listed as “absent”. The “stereotypies induced by apomorphine” value in the series on rats [13] is listed as “potentiation of the stereotypies induced by apomorphine”. In addition, in the series with mice [14], the “hypothermia induced by apomorphine” value is given as “antagonism of the hypothermia induced by apomorphine”. In the series on CNS, the “overall action on the CNS” value is reported as “stimulant effects; also recorded: antidepressant effects”. Besides, in the series on mice [15], the excitation in mice result was “excitation with hyperreactivity in mice”. The “stereotype movements in rats” value in the series with rats [16] is “stereotype movements in rats”.

As for `CC(=O)Nc1ccc(C(=O)C(C)NC2CC2)cc1` (stereo not drawn) [CRL 41 245], the “motor activity after habituation to the enclosure” value in the series with mice [1] is reported as “resumption in the motor activity of mice accustomed to their enclosure”. In addition, in the series with mice [2], the “hypothermia induced by reserpine” value was “antagonism of the hypothermia induced by apomorphine, reserpine” and the “ptosis induced by reserpine” value is “reduction in the ptosis induced by reserpine”. The “trembling due to oxotremorine” value in the series on mice [3] (strong dose) was “a reduction, at a strong dose, in the intensity of the trembling due to oxotremorine”. The “hypothermia induced by oxotremorine” value in the series on mice [3] (dose not stated) is “antagonism of the hypothermia induced by apomorphine, reserpine and oxotremorine”. In addition, the “convulsant effects of electric shock” value in the series on mice [5] (strong/high dose) is on record as “total antagonism”. Also, the “number of punished passes in the 4 plate test” value in the series on mice [5] (mice, dose not stated) is recorded as “increase in the number of punished passes”. Besides, the “spontaneous motility / motor activity” value in the series with mice [6] is recorded as “increase in the spontaneous motor activity”. The “period of immobility or "despair"” value in the series on mice [7] is given as “reduction in the period of immobility”. The “stereotypies induced by amphetamine” value in the series on rats [8] was “potentiation of the stereotypies induced by apomorphine and amphetamine”. The “motor recovery after hypoxic aggression” value in the series with mice [10] is “improvement in the motor recovery in mice subjected to acute hypoxia”. Moreover, in the series with male mice [17], the “LD-0 (maximum non-lethal dose)” value is “greater than 256 mg/kg” and the LD-100 result is reported as “less than or equal to 512 mg/kg”. For the same compound, in the series on mice [11], the “sleep induced by barbital” value was “reduction in the duration of the sleep induced by barbital”. Moreover, in series [12], the mydriasis result is recorded as “mydriasis in rats” and the “peripheral adrenergic stimulation, overall” value is recorded as “peripheral α-adrenergic stimulation”. Besides, the piloerection entry in series [12] (mice and rats) is “piloerection in mice and rats”. Also, the “stereotypies induced by apomorphine” value with rats [13] is recorded as “potentiation of the stereotypies induced by apomorphine”. Also, the intergroup aggression result with mice [18] was “a reduction in the intergroup aggression”. For the same compound, in the series on mice [14], the “hypothermia induced by apomorphine” value is recorded as “antagonism of the hypothermia induced by apomorphine”. The “overall action on the CNS” value in the series on CNS is recorded as “behaves as an antidepressant with a strong stimulant component”. Also, in the series on mice [15], the excitation in mice entry is on record as “excitation with hyperreactivity in mice” and the “stereotype movements in mice” value is recorded as “presence of stereotype movements in mice”. Further, in the series with rats [16], the excitation in rats entry is “excitation with hyperreactivity in mice and rats”; the “stereotype movements in rats” value was “presence of stereotype movements in mice and rats”.

Turning to `CC(N)Cc1ccccc1` (stereo not drawn) [amphetamine, reference compound], in the series on male mice [19], the “motor effects with I.V.C. administration of noradrenaline” value (“motor effects” below) is recorded as “potentialized by I.V.C. administration of noradrenaline”. In addition, the entries for the “effect of haloperidol on induced stereotypies” value in the series with rats [9] (haloperidol 0.25 mg/kg i.p. 0.5 h before) and in the series on rats [9] (haloperidol 0.5 mg/kg i.p. 0.5 h before) were “almost totally prevents the appearance of stereotypies” and “totally inhibits the said stereotypies”, respectively.

In the case of `COC(=O)[C@H]1[C@@H](OC(=O)c2ccccc2)C[C@@H]2CC[C@H]1N2C` [cocaine], in the series with male mice [19], the “motor effects” value was “potentialized by I.V.C. administration of noradrenaline”.

Consider `COC(=O)C(c1ccccc1)C1CCCCN1` (stereo not drawn) [methylphenidate, reference compound], for which, in the series on male mice [19], the “motor effects” value is “potentialized by I.V.C. administration of noradrenaline”. Further, the “effect of reserpine on induced stereotypies” value with rats [9] (reserpine 4 mg/kg i.p. 24 hours before) was “only a moderate reduction of the stereotypies”.

As for `CN1Cc2c(N)cccc2C(c2ccccc2)C1` (stereo not drawn) [nomifensine], the “motor effects” value in the series on male mice [19] is reported as “potentialized by I.V.C. administration of noradrenaline”.
